The assay deals with Mycosphaerella graminicola; Anamorph: Septoria tritici; Bayer Code SEPTTR. The assay is described as follows: Leaf blotch of wheat, foliar fungicide treatment, one day protectant (1DP) or three day curative (3DC). Type of assay: in vivo, Septoria tritici on wheat plants (variety Yuma). Conditions: Zymoseptoria tritici; for pest or weed control at 50 ppm / pest or weed control at 200 ppm: % disease control rating.

Setting [1] is: 24 h, one day protectant (1DP), 25 ppm, rating of percent disease control, read-out: SETTTR 1DP 25 ppm.
Where [2] appears, read: 24 h, one day protectant (1DP), rating of percent disease control, read-out: SEPTTR 1DP 100 ppm.
Where [3] appears, read: 72 h, three day curative (3DC), 25 ppm, rating of percent disease control, read-out: SEPTTR 3DC 25 ppm.
Where [4] appears, read: 72 h, three day curative (3DC), rating of percent disease control, read-out: SEPTTR 3DC 100 ppm.
Setting [5] is: 24 h, one day protectant (1DP), 25 ppm, percent disease control rating, read-out: SETTTR 1DP 25 ppm.
Where [6] appears, read: 24 h, one day protectant (1DP), percent disease control rating, read-out: SEPTTR 1DP 100 ppm.
[7] abbreviates: 72 h, three day curative (3DC), 25 ppm, percent disease control rating, read-out: SEPTTR 3DC 25 ppm.
The mark [8] stands for this setting: 72 h, three day curative (3DC), percent disease control rating, read-out: SEPTTR 3DC 100 ppm.
Setting [9] is: 24 h, one day protectant (1DP), 25 ppm (first 1DP column), percent control rating, read-out: SETTTR 1DP 25 ppm.
Where [10] appears, read: 24 h, one day protectant (1DP), 25 ppm as printed (second 1DP column), percent control rating, read-out: SETTTR 1DP 25 ppm.
Setting [11] is: 72 h, three day curative (3DC), 25 ppm, percent control rating, read-out: SEPTTR 3DC 25 ppm.
[12] abbreviates: 72 h, three day curative (3DC), percent control rating, read-out: SEPTTR 3DC 100 ppm.
[13] abbreviates: 24 h, one day protectant, 25 ppm, rating of percent disease control, read-out: SETTTR 1DP 25 ppm.
[14] abbreviates: 24 h, one day protectant, rating of percent disease control, read-out: SEPTTR 1DP 100 ppm.
Setting [15] is: 72 h, three day curative, 25 ppm, rating of percent disease control, read-out: SEPTTR 3DC 25 ppm.
[16] abbreviates: 72 h, three day curative, rating of percent disease control, read-out: SEPTTR 3DC 100 ppm.

Like-named read-outs stand apart in the source and are kept apart here.

For `Nc1nc(OC(c2ccc(F)cc2)c2ccc(F)cc2)ncc1F` [Compound 355], the pest or weed control at 25 ppm by setting is: under setting [1], 76 to 100%; under setting [3], 76 to 100%. The pest or weed control at 100 ppm is 76 to 100% under setting [2] and 76 to 100% under setting [4].
On to `CCCNC(=S)Nc1nc(OCc2cccs2)ncc1F` [Compound 528], for which the pest or weed control at 25 ppm under setting [1] was 76 to 100% and the pest or weed control at 25 ppm under setting [3] was 0 to 25%. Also, the pest or weed control at 100 ppm under setting [2] fell in the range of 76 to 100% and the pest or weed control at 100 ppm under setting [4] is 51 to 75%.
For the molecule `CC(Oc1ncc(F)c(N)n1)c1ccc([N+](=O)[O-])cc1` (centres unmarked) [Compound 393], the pest or weed control at 25 ppm runs as follows: under setting [1], 26 to 50%; under setting [3], 26 to 50%. The pest or weed control at 100 ppm runs as follows: under setting [2], 76 to 100%; under setting [4], 76 to 100%.
Turning to `Nc1nc(OCc2ccc(C(F)(F)F)nc2)ncc1F` [Compound 184], the pest or weed control at 25 ppm lay within 76 to 100% under setting [1] and 51 to 75% under setting [3]. Moreover, the pest or weed control at 100 ppm under setting [2] fell in the range of 76 to 100% and the pest or weed control at 100 ppm under setting [4] fell in the range of 76 to 100%.
As to `CCOC(=O)Nc1nc(OCc2ccccc2OC)ncc1F` [Compound 150], the pest or weed control at 25 ppm under setting [5] fell in the range of 0 to 25% and the pest or weed control at 25 ppm under setting [7] lay within 26 to 50%. Further, the pest or weed control at 100 ppm was in the range of 76 to 100% under setting [6] and 76 to 100% under setting [8].
As for `Cc1cc(COc2ncc(F)c(N)n2)ccc1F` [Compound 365], the pest or weed control at 25 ppm lay in the range of 76 to 100% under setting [1] and 76 to 100% under setting [3]. In addition, the pest or weed control at 100 ppm fell in the range of 76 to 100% under setting [2] and 76 to 100% under setting [4].
Turning to `Cn1ccc(COc2ncc(F)c(/N=C/N3CCOCC3)n2)n1` [Compound 108], the pest or weed control at 25 ppm was in the range of 76 to 100% under setting [5] and 76 to 100% under setting [7]. Further, the pest or weed control at 100 ppm is, setting by setting: under setting [6], 76 to 100%; under setting [8], 76 to 100%.
As to `CCCCCOC(=O)Nc1nc(OCc2ccc(C)cc2)ncc1F` [Compound 986], the pest or weed control at 25 ppm by setting is: under setting [9], 76 to 100%; under setting [10], 76 to 100%; under setting [11], 76 to 100%. For the same molecule, the pest or weed control at 100 ppm under setting [12] lay in the range of 76 to 100%.
Consider `COc1ncc(F)c(NNc2ccccn2)n1` [Compound 1050], for which the pest or weed control at 25 ppm was 0 to 25% under setting [9], 0 to 25% under setting [10] and 0 to 25% under setting [11]. Further, under setting [12], the pest or weed control at 100 ppm fell in the range of 26 to 50%.
For the molecule `Fc1cnc(OCc2ccccc2)nc1NNc1ccc(Cl)c(Cl)c1` [Compound 1037], the pest or weed control at 25 ppm lay in the range of 0 to 25% under setting [9], 26 to 50% under setting [10] and 0 to 25% under setting [11]. Also, under setting [12], the pest or weed control at 100 ppm was in the range of 0 to 25%.
Take `Nc1nc(OCc2cccc(OC(F)F)c2)ncc1F` [Compound 368]: the pest or weed control at 25 ppm fell in the range of 76 to 100% under setting [1] and 76 to 100% under setting [3]. Moreover, the pest or weed control at 100 ppm lay within 76 to 100% under setting [2] and 76 to 100% under setting [4].
For `COc1cccc(COc2ncc(F)c(NS(=O)(=O)C(C)C)n2)c1` [Compound 1012], the pest or weed control at 25 ppm fell in the range of 0 to 25% under setting [9], 0 to 25% under setting [10] and 0 to 25% under setting [11]. In addition, the pest or weed control at 100 ppm under setting [12] fell in the range of 0 to 25%.
As for `Nc1nc(OCCc2ccccc2)ncc1F` [Compound 936], where the note is “24 h, one day protectant”, the pest or weed control at 50 ppm lay in the range of 76 to 100% and the pest or weed control at 200 ppm was 76 to 100%.
For `COc1cccc(COc2ncc(F)c(N3CCOCC3)n2)c1` [Compound 586], the pest or weed control at 25 ppm reads like this: under setting [13], 0 to 25%; under setting [15], 0 to 25%. The pest or weed control at 100 ppm fell in the range of 0 to 25% under setting [14] and 0 to 25% under setting [16].
`CCCCCC(CC)Oc1ncc(F)c(N)n1` (centres unmarked) [Compound 740]: the pest or weed control at 25 ppm under setting [1] fell in the range of 0 to 25%. Under setting [2], the pest or weed control at 100 ppm is 0 to 25%.
For the molecule `O=[N+]([O-])c1ccccc1SNc1nc(OCc2ccc(F)cc2F)ncc1F` [Compound 662], the pest or weed control at 25 ppm fell in the range of 0 to 25% under setting [13] and 26 to 50% under setting [15]. The pest or weed control at 100 ppm fell in the range of 76 to 100% under setting [14] and 26 to 50% under setting [16].
In the case of `C=CCOc1ncc(F)c(NNC(=O)C=C(C)C)n1` [Compound 1123], the pest or weed control at 25 ppm under setting [9] is 0 to 25%, the pest or weed control at 25 ppm under setting [10] lay within 0 to 25% and the pest or weed control at 25 ppm under setting [11] lay within 0 to 25%. In addition, the pest or weed control at 100 ppm under setting [12] is 0 to 25%.
With `Nc1nc(OCc2ccc(OCc3ccccc3)cc2)ncc1F` [Compound 193], the pest or weed control at 25 ppm runs as follows: under setting [1], 76 to 100%; under setting [3], 76 to 100%. Besides, the pest or weed control at 100 ppm is 76 to 100% under setting [2] and 76 to 100% under setting [4].
Under “24 h, one day protectant”, `Fc1cnc(OCc2ccco2)nc1NCc1ccc(Cl)cc1` [Compound 946] displayed a pest or weed control at 50 ppm of 51 to 75% and a pest or weed control at 200 ppm of 76 to 100%.
In the case of `Nc1nc(OCCNc2ccccc2)ncc1F` [Compound 583], the pest or weed control at 25 ppm under setting [13] was 0 to 25% and the pest or weed control at 25 ppm under setting [15] fell in the range of 76 to 100%. Besides, the pest or weed control at 100 ppm is, setting by setting: under setting [14], 76 to 100%; under setting [16], 76 to 100%.
Take `O=C(Nc1ccccc1F)Nc1nc(OCc2cccs2)ncc1F` [Compound 799]: the pest or weed control at 25 ppm under setting [1] lay within 0 to 25% and the pest or weed control at 25 ppm under setting [3] is 0 to 25%. Besides, the pest or weed control at 100 ppm runs as follows: under setting [2], 0 to 25%; under setting [4], 0 to 25%.
The molecule `COc1ccc(COc2ncc(F)c(NC3CC3)n2)cc1` [Compound 823] showed a pest or weed control at 200 ppm (24 h, one day protectant) of 76 to 100%.
Regarding `CC(C)(C)Oc1ccc(COc2ncc(F)c(N)n2)cc1` [Compound 95], the pest or weed control at 25 ppm under setting [5] was in the range of 76 to 100% and the pest or weed control at 25 ppm under setting [7] was 76 to 100%. Also, the pest or weed control at 100 ppm is, setting by setting: under setting [6], 76 to 100%; under setting [8], 76 to 100%.
On to `COc1ccc(/C=N/Nc2nc(OCc3cccc(OC)c3)ncc2F)cc1` [Compound 65], for which the pest or weed control at 25 ppm is 26 to 50% under setting [5] and 26 to 50% under setting [7]. Further, the pest or weed control at 100 ppm by setting is: under setting [6], 51 to 75%; under setting [8], 51 to 75%.
As to `COCCOC(=O)Nc1nc(OCc2cccc(F)c2)ncc1F` [Compound 273], the pest or weed control at 25 ppm fell in the range of 51 to 75% under setting [1] and 76 to 100% under setting [3]. The pest or weed control at 100 ppm reads like this: under setting [2], 76 to 100%; under setting [4], 76 to 100%.
For `Fc1cnc(OCc2ccccc2)nc1NNc1nccc(C(F)(F)F)n1` [Compound 1038], the pest or weed control at 25 ppm was 0 to 25% under setting [9], 0 to 25% under setting [10] and 0 to 25% under setting [11]. Further, under setting [12], the pest or weed control at 100 ppm was 0 to 25%.
With `COc1ccc(COc2ncc(F)c(N)n2)cc1F` [Compound 590], the pest or weed control at 25 ppm is, setting by setting: under setting [13], 76 to 100%; under setting [15], 76 to 100%. Besides, the pest or weed control at 100 ppm was 76 to 100% under setting [14] and 76 to 100% under setting [16].
For `CN(C)/C=N/c1nc(OCOC(=O)C2CCCC2)ncc1F` [Compound 1084], the pest or weed control at 25 ppm by setting is: under setting [9], 76 to 100%; under setting [10], 76 to 100%; under setting [11], 76 to 100%. For the same molecule, the pest or weed control at 100 ppm under setting [12] is 76 to 100%.
With `Fc1cnc(OCc2ccccc2)nc1N/N=C/c1ccco1` [Compound 357], the pest or weed control at 25 ppm is 26 to 50% under setting [1] and 0 to 25% under setting [3]. The pest or weed control at 100 ppm by setting is: under setting [2], 26 to 50%; under setting [4], 51 to 75%.
In the case of `CCC(C)C(=O)Oc1ncc(F)c(/N=C/N(C)C)n1` (centres unmarked) [Compound 94], the pest or weed control at 25 ppm was in the range of 76 to 100% under setting [5] and 76 to 100% under setting [7]. Also, the pest or weed control at 100 ppm under setting [6] was in the range of 76 to 100% and the pest or weed control at 100 ppm under setting [8] fell in the range of 76 to 100%.
Take `Nc1nc(OS(=O)(=O)c2ccc(Cl)cc2)ncc1F` [Compound 611]: the pest or weed control at 25 ppm under setting [13] lay within 76 to 100% and the pest or weed control at 25 ppm under setting [15] lay in the range of 76 to 100%. In addition, the pest or weed control at 100 ppm is, setting by setting: under setting [14], 76 to 100%; under setting [16], 76 to 100%.
Where the note is “24 h, one day protectant”, `Cc1ccc(COc2ncc(F)c(NCc3ccc4c(c3)OCO4)n2)cc1` [Compound 854] returned a pest or weed control at 50 ppm of 51 to 75% and a pest or weed control at 200 ppm of 76 to 100%.
`CC[Si](CC)(CC)Nc1nc(OCc2cccs2)ncc1F` [Compound 503]: the pest or weed control at 25 ppm under setting [1] fell in the range of 76 to 100% and the pest or weed control at 25 ppm under setting [3] lay in the range of 76 to 100%. In addition, the pest or weed control at 100 ppm under setting [2] fell in the range of 76 to 100% and the pest or weed control at 100 ppm under setting [4] fell in the range of 76 to 100%.
Consider `CC(Oc1ncc(F)c(N)n1)c1cccc(Oc2ccccc2)n1` (centres unmarked) [Compound 82], for which the pest or weed control at 25 ppm by setting is: under setting [5], 26 to 50%; under setting [7], 0 to 25%. Besides, the pest or weed control at 100 ppm under setting [6] lay in the range of 26 to 50% and the pest or weed control at 100 ppm under setting [8] was 26 to 50%.

Source of the values: patent US9204653B2, “5-fluoro pyrimidine derivatives” (DOW AGROSCIENCES LLC, priority 2008, dated 2015).
